Laboratory results from US10717777B2, “Synthetic lung surfactant with enhanced stability and effectiveness” (The Lundquist Institute for Biomedical Innovation at …, priority 2015, dated 2020).

assay: Surface activity by captive bubble surfactometry (quasi-static cycling); assay type: physicochemical; settings: FIG. 2; B-YL, B-LYL, B-AYL at 3% in 5:3:2 (wt:wt:wt) DPPC:POPC:POPG; S-MB, S-MB-DATK, MB-DATK added for comparison
Protocol: In this example, surface activity of the various peptides disclosed in the present disclosure were measured in mixtures of peptides and lipids using captive bubble surfactometry.
This example used peptide concentrations of 2-4% and a lipid mixture consisting of 5:3:2 (wt:wt:wt) DPPC:POPC:POPG. Lipids only were used a negative control and the clinical surfactant Infasurf™ as a positive control.
Low surface tension equals high surface activity.
Minimum tension values during the first 10 cycles of quasi-static cycling on the captive bubble surfactometer are compared with those of lipids only.
FIG. 2 compares 3% of B-YL (SEQ ID NO: 27), B-LYL (SEQ ID NO: 28) and B-AYL (SEQ ID NO: 29) in 5:3:2 (wt:wt:wt) DPPC:POPC:POPG with lipids only (negative control) and the clinical surfactant Infasurf™ (positive control). For comparison the minimum surface tension values of Super Mini-B (S-MB), Super Mini-B-DATK (S-MB-DATK) and Mini-B-DATK (MB-DATK) have been added to the figure.

Row | Sequence | Surface activity (minimum surface tension) as compared to the negative control (lipids only)
1 | CWLCRALIKRIQAMIDATKRMLPQLVCRLVLRCS [Mini-B-DATK, Mini-B analog with DATK turn, added for comparison] | excellent surface activity
2 | FPIPLPYCWLCRALIKRIQAMIDATKRMLPQLVCRLVLRCS [Super Mini-B-DATK, Super Mini-B analog with DATK turn, added for comparison] | excellent surface activity
3 | FPIPLPYCWLCRALIKRIQAMIPKGGRMLPQLVCRLVLRCS [Super Mini-B] | excellent surface activity
4 | FPIPLPYLWLYRALIKRIQALIPKGGRLLPQLVYRLVLRLS [B-LYL] | excellent surface activity
5 | FPIPLPYYWLYRALIKRIQALIPKGGRLLPQLVYRLVLRYS [B-YL] | excellent surface activity
